# Assays:
# SCC4 cells [1] = experiment: MTS cell proliferation assay; type: cell-based, human; conditions: vitamin D resistant SCC4 cells, Figures 7c, 8 and 9
# Source text: Dose-dependent effects of compounds on cell cycle progression was monitored using a CellTiter 96 Aqueous Non-Radioactive Cell Proliferation Assay Kit (Promega). The assay composed of solutions of a novel tetrazolium compound (MTS) and an electron coupling reagent (phenazine methosulfate; PMS). MTS is reduced by metabolically active cells into a soluble formazan product that absorbs at 490nm. The quantity of formazan product absorbing at 490nm is directly proportional to the number of living cells.
# HDAC6 = molecular target: T1, HDAC6 (Homo sapiens, UniProt Q9UBN7); experiment: Fluorogenic HDAC inhibition assay, purified enzyme
# T1 sequence (Q9UBN7 1-1215): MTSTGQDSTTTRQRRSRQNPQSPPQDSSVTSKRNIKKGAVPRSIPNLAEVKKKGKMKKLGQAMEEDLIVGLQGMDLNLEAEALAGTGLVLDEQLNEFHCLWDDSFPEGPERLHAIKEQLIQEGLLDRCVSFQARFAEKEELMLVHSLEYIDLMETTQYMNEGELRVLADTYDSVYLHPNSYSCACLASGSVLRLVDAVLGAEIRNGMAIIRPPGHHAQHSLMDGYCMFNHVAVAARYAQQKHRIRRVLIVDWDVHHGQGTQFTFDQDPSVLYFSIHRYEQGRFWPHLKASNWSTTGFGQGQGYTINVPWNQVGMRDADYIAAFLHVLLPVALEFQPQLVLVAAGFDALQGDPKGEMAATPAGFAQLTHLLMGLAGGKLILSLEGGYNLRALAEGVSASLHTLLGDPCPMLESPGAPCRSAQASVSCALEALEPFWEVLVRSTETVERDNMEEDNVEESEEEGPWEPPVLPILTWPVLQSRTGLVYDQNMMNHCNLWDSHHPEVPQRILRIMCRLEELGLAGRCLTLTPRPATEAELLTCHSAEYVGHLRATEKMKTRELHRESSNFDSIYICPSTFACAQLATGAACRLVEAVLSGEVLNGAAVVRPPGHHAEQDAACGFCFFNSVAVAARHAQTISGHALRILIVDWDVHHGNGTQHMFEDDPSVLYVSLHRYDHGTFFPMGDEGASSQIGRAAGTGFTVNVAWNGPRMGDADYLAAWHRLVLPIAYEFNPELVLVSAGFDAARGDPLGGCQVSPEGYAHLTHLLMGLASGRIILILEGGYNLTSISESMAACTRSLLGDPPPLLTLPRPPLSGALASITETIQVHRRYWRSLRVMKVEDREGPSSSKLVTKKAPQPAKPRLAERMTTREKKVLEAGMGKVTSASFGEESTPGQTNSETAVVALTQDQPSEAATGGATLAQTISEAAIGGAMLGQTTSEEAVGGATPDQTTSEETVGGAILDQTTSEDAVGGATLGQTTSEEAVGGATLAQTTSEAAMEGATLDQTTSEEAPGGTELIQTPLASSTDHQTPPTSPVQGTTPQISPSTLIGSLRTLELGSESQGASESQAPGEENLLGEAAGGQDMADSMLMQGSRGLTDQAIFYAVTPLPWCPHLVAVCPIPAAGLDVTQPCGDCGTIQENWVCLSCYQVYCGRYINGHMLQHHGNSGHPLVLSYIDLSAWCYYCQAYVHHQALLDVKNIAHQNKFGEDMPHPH
# Experimental: (§1) Fluorogenic HDAC inhibition assay. Boc-Lys(Ac)-7-amino-4-methylcoumarin (Boc-Lys(Ac)-AMC) was used as substrate for the HDAC assays. […] Trypsin was used to stop the reaction, releasing free AMC. The trypsin solution was prepared as follow: trypsin was dissolved in HDAC buffer to give a concentration of 10 mg/mL. Release of AMC was monitored by measuring the fluorescence at 460 nm (lex = 390 nm) with a microplate reader (SpectraMax Gemini) at 37 °C. The AMC signals were recorded against a blank with buffer, substrate and trypsin but without the enzyme. All experiments were carried out at least in triplicate.
# (§2) For standard HDAC assays, 50 µL of HDAC buffer was mixed with 10 µL of diluted enzyme solution in HDAC buffer at room temperature. The HDAC reaction was started by adding 40 µL of substrate solution in HDAC buffer followed by 30 min of incubation with stirring at 37 °C. The reaction was stopped by adding 100 µL of trypsin solution. After a 10 min incubation with stirring at 37 °C, the release of AMC was monitored by measuring the fluorescence. For HDAC inhibition assays, inhibitor diluted in 50 µL of HDAC buffer was mixed with 10 µL of diluted enzyme solution in HDAC buffer at room temperature. The HDAC reaction was started by adding 40 µL of substrate solution in HDAC buffer followed by 30 min of incubation with stirring at 37 °C. The reaction was stopped by adding 100 µL of trypsin solution. After a 10 min incubation with stirring at 37 °C, the release of AMC was monitored by measuring the fluorescence.
# HDAC3 = HDAC3 (Homo sapiens, UniProt O15379); experiment: Fluorogenic HDAC inhibition assay, purified enzyme
# HDAC3, sequence (O15379 whole entry, species assumed): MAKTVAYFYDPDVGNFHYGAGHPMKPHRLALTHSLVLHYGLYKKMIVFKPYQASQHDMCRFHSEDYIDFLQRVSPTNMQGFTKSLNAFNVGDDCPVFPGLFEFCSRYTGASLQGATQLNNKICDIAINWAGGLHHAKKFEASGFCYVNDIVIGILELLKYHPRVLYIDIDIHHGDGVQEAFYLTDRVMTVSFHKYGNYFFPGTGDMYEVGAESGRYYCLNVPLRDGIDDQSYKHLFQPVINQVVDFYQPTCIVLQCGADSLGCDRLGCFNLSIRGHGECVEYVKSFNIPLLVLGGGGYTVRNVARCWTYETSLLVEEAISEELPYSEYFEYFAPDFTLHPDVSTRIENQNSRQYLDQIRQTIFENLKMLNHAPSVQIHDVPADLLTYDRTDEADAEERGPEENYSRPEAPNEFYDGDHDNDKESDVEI
# HDAC3, sequence (Q9Y618 395-489 partner limits assumed, species assumed): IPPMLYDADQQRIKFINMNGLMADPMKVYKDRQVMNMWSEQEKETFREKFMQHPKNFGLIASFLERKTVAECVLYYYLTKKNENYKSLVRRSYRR
# Experimental: as §1, §2
# VDR = molecular target: T2, VDR (Homo sapiens, UniProt P11473); experiment: VDR agonism by induction of CYP24 gene expression (RT/PCR); type: cell-based; conditions: SCC25 cells; for VDR agonism by induction of CYP24 gene expression: screen at 10 µM, Fig. 1a
# T2 construct: endogenous in cells; host or cells: SCC25 human head and neck squamous carcinoma cells
# T2 sequence (P11473 1-427): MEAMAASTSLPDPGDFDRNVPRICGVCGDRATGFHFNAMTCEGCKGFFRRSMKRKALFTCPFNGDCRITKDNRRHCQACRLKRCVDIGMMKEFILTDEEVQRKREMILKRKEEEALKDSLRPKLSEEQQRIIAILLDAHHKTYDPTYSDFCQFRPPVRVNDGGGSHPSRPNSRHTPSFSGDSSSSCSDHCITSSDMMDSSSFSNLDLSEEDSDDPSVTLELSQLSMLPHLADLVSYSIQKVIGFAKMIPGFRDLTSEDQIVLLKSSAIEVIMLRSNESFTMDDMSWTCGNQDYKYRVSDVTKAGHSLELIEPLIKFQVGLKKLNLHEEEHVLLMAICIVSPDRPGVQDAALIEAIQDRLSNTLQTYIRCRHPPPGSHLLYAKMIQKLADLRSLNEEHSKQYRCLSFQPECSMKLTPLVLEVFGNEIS
# Experimental: Cell culture. Human head and neck squamous carcinoma cell lines SCC4 and SCC45 and mouse HNSCC line AT84 were purchased from American Type Culture Collection (Manassas, VA) and cultured under recommended conditions. Cells were split at 60-70% confluence, as follows: cells were washed with filtered PBS, split with a 5-10 min incubation with 1 ml Trypsin-EDTA (Invitrogen, Carlsbad, CA) in PBS, collected with medium. Following centrifugation, the supernatant was removed. Cell pellets were resuspended with DMEM-F12, and distributed on fresh media-containing dishes. For treatments, AT84 cells were split and 24h later medium was changed to DMEM + 10% charcoal-stripped FBS.
# RNA isolation and RT/PCR analysis. […]. Proc. Nat. Acad. Sci. U.S.A. 105, 8250-55. and Lamblin, M.et al Bioorganic & Medicinal Chemistry (2010) 18:4119-4137. After treatment, cells were washed with PBS, homogenized with 1ml TRIzol Reagent (Invitrogen, Carlsbad, CA), kept at room temperature for 2-5 min, collected and kept at -80 °C for at least 1h. After, thawing 0.2 ml chloroform was added. After vigorous mixing and storing for 10min, mixtures were centrifuged (10,000rpm, 15 min, 4 °C) and the upper transparent layer was transferred to a new tube. 0.5 ml isopropanol was added and the new solution was mixed. After centrifuging at 4 °C, the supernatant was discarded and 1ml of 75% ethanol was added. After centrifuging and discarding the supernatant, the pellet was air-dried for 5-10 min, and then dissolved in ddH2O. RNA concentrations were measured using a spectrophotometer, and 1-3µg of RNA were loaded for reverse transcriptase reactions (total volume: 20 µl). 80µl of ddH2O was added to the RT-product, and 1.5µl of that was used as template for the PCR reaction. Reverse transcriptase (Super Script II) was purchased from Invitrogen (Carlsbad, CA). DNA polymerase and dNTP's were ordered from Fermentas (Glen Burnie, MD).
# Test compounds (10 µM) were first screened for VDR agonism by analysis of induction of CYP24 gene expression in 1,25D-sensitive human SCC25 cells. […]. Consistent with binding to the VDR, induction of CYP24 by compound JF-B01, compound JF-B53 or compound 16 (JF-B54) was blocked (Fig. 1c). […]
# SCC4 cells [2] = experiment: EdU cell growth assay; conditions: 1,25D-resistant SCC4 cells, Fig. 2e, f
# Experimental: EdU cell growth assay. Click-iT EdU Alexa Fluor high-throughput imaging (HCS) assay for cell proliferation. HCS assays were performed on AT84 mouse squamous carcinoma cell line (ATCC) following the manufacturer's instruction (Molecular Probes, Invitrogen). […] All samples were in triplicate.
smiles,measurement,setting,value
CCC(CC)(c1ccc(OCCCC(=O)NO)c(C)c1)c1ccc(OC[C@H](O)C(C)(C)C)c(C)c1 [JFD-15],antiproliferative potency,SCC4 cells [1],low micromolar potency
same,IC50,HDAC6,47.1 µM
same,IC50,HDAC3,9.83 µM
CCC(CC)(c1ccc(OCC(=O)NO)c(C)c1)c1ccc(OCC(O)CO)c(C)c1 (stereo not drawn) [JF-B40],VDR agonism by induction of CYP24 gene expression,VDR,completely inactive
"CCC(CC)(c1ccc(OCC(O)C(C)(C)C)c(C)c1)c1cn(C)c2cc(CCC(=O)NO)ccc12 (stereo not drawn) [DK-234, N-hydroxy-3-(3-(3-(4-(2-hydroxy-3.3-dimethylbutoxy)-3-methylphenyl)pentan-3-yl)-1-methyl-1H-indol-6-yl)propanamide]",antiproliferative potency,SCC4 cells [1],low micromolar potency
"CCC(CC)(c1ccc(OCCCCC(=O)NO)cc1)c1ccc(OCC(O)C(C)(C)C)c(C)c1 (stereo not drawn) [DK-381, N-hydroxy-5-(4-(3-(4-(2-hydroxy-3,3-dimethylbutoxy)-3-methylphenyl)pentan-3-yl)phenoxy)pentanamide]",IC50,HDAC6,3.13 µM
"CCC(CC)(c1ccc(OCCCCCCC(=O)NO)c(C)c1)c1ccc(OCC(O)C(C)(C)C)c(C)c1 (stereo not drawn) [DK-347, N-hydroxy-7-(4-(3-(4-(2-hydroxy-3,3-dimethylbutoxy)-3-methylphenyl)pentan-3-yl)-2-methylphenoxy)heptanamide]",IC50,HDAC6,3.94 µM
"CCC(CC)(c1ccc(OCC(O)CCC(=O)NO)c(C)c1)c1ccc(OCC(O)C(C)(C)C)c(C)c1 (stereo not drawn) [DK-305, N,4-dihydroxy-5-(4-(3-(4-(2-hydroxy-3,3-dimethylbutoxy)-3-methylphenyl)pentan-3-yl)-2-methylphenoxy)pentanamide]",IC50,HDAC6,29.2 µM
"CCC(CC)(c1ccc(OCC(O)C(C)(C)C)c(C)c1)c1ccc(C(=O)NCCCCCC(=O)NO)c(C)c1 (stereo not drawn) [DK-361, 4-(3-(4-(2-hydroxy-3,3-dimethylbutoxy)-3-methylphenyl)pentan-3-yl)-N-(6-(hydroxyamino)-6-oxohexyl)-2-methylbenzamide]",IC50,HDAC6,3.4 µM
"CCC(CC)(c1ccc(OCCO)c(C)c1)c1ccc(OCC(=O)NO)c(C)c1 [JF-B52, N-Hydroxy-2-(4-(3-(4-(2-hydroxvethoxy)-3-methylphenyl)pentan-3-yl)-2-methylphenoxy)acetamide]",VDR agonism by induction of CYP24 gene expression,VDR,completely inactive
"CCC(CC)(c1ccc(OCC(O)C(C)(C)C)c(C)c1)c1ccc(C(=O)NCCCCCCC(=O)NO)c(C)c1 (stereo not drawn) [DK-362, 4-(3-(4-(2-hydroxy-3,3-dimethylbutoxy)-3-methylphenyl)pentan-3-yl)-N-(7-(hydroxyamino)-7-oxoheptyl)-2-methylbenzamide]",IC50,HDAC6,1.08 µM
CCC(CC)(c1ccc(OCC(=O)O)c(C)c1)c1ccc(OCC(=O)C(C)(C)C)c(C)c1 [JF-C11],"inhibition of proliferation, EdU incorporation",SCC4 cells [2],failed to block SCC4 proliferation
same,"VDR agonist activity and potency, induction of CYP24 gene expression","VDR; Fig. 1b, 1d",some agonist activity
"CCC(CC)(c1ccc(C(=O)NCCCCCC(=O)NO)cc1)c1ccc(OCC(O)C(C)(C)C)c(C)c1 (stereo not drawn) [DK-406, 4-(3-(4-(2-hydroxy-3,3-dimethylbutoxy)-3-methylphenyl)pentan-3-yl)-N-(6-(hydroxyamino)-6-oxohexyl)benzamide]",IC50,HDAC6,0.557 µM
"CCC(CC)(c1ccc(OCCCCC(=O)NO)c(C)c1)c1ccc(OCC(O)C(C)(C)C)c(C)c1 (stereo not drawn) [DK-320, N-hydroxy-5-(4-(3-(4-(2-hydroxy-3,3-dimethylbutoxy)-3-methylphenyl)pentan-3-yl)-2-methylphenoxy)pentanamide]",IC50,HDAC6,5.03 µM
"CCC(CC)(c1ccc(OCC(=O)NO)c(C)c1)c1ccc(OCC(=O)C(C)(C)C)c(C)c1 [JF-B59, 2-(4-(3-(4-(3,3-dimethyl-2-oxobutoxy)-3-methylphenyl)pentan-3-yl)-2-methylphenoxy)-N-hydroxyacetamide]","VDR agonist potency, fold lower compared to JF-B01",VDR; Fig. 1b,> 10 fold
"CCC(CC)(c1ccc(OCCCCCC(=O)NO)cc1)c1ccc(OCC(O)C(C)(C)C)c(C)c1 (stereo not drawn) [DK-367, N-hydroxy-6-(4-(3-(4-(2-hydroxy-3,3-dimethylbutoxy)-3-methylphenyl)pentan-3-yl)phenoxy)hexanamide]",antiproliferative potency,SCC4 cells [1],low micromolar potency
same,IC50,HDAC6,1.57 µM
"CCC(CC)(c1ccc(OCCCCCC(=O)NO)c(C)c1)c1ccc(OCC(O)C(C)(C)C)c(C)c1 (stereo not drawn) [DK-319, N-hydroxy-6-(4-(3-(4-(2-hydroxy-3,3-dimethylbutoxy)-3-methylphenyl)pentan-3-yl)-2-methylphenoxy)hexanamide]",IC50,HDAC6,2.65 µM
"CCC(CC)(c1ccc(OCCCCC(=O)NO)cc1)c1ccc(OCCC(C)(C)C)c(C)c1 [DK-405, 5-(4-(3-(4-(3,3-dimethylbutoxy)-3-methylphenyl)pentan-3-yl)phenoxy)-N-hydroxypentanamide]",IC50,HDAC6,1.97 µM
CCC(CC)(c1ccc(CCC(=O)NO)c(C)c1)c1ccc(OC[C@H](O)C(C)(C)C)c(C)c1 [JFD-50],antiproliferative potency,SCC4 cells [1],low micromolar potency
same,IC50,HDAC6,36.1 µM
same,IC50,HDAC3,45.1 µM
"CCC(CC)(c1ccc(OCC(=O)NO)c(C)c1)c1cc(C)c(CCC(O)C(C)(C)C)s1 (stereo not drawn) [DK-201, N-hydroxy-2-(4-(3-(5-(3-hydroxy-4,4-dimethylpentyl)-4-methylthiophen-2-yl)pentan-3-yl)-2-methylphenoxy)acetamide]",IC50,HDAC3,30.5 µM
"CCC(CC)(c1ccc(OCC(O)C(C)(C)C)c(C)c1)c1cc(C)c(CCC(=O)NO)s1 (stereo not drawn) [DK-178, N-hydroxy-3-(5-(3-(4-(2-hydroxy-3,3-dimethylbutoxy)-3-methylphenyl)pentan-3-yl)-3-methylthiophen-2-yl)propanamide]",antiproliferative potency,SCC4 cells [1],low micromolar potency
same,IC50,HDAC6,24.9 µM
same,IC50,HDAC3,47.3 µM

# From patent EP2794556B1, “BIS-(ARYL/HETEROARYL)-METHYLENE COMPOUNDS, PHARMACEUTICAL COMPOSITIONS CONTAINING SAME AND THEIR USE FOR TREATING CANCER” (Gleason, James L., priority 2011, dated 2013)
